From patent US6235717A, “Pharmaceutical compounds” (Glaxo Wellcome Inc., priority 1993, dated 2001)
pIC50: −log10 of the molar value. Non-standard residues stand in square brackets, D forms with d. Residues, ends and D or L forms follow the SMILES beside them. ξ: configuration not given here. *: point of attachment. ξW = NC(Cc1c[nH]c2ccccc12)C(=O)O; MeOSuc = COC(=O)CCC(=O)*; Cbz = O=C(OCc1ccccc1)*; Pentanoyl = CCCCC(=O)*; Ahx = NCCCCCC(=O)O; OtBu = CC(C)(C)O*

biological target: endothelin converting enzyme (ECE) (Sus scrofa, UniProt F1SU04); experiment: "ECE" assay with porcine aortic "ECE" prep, fluorogenic substrate Suc-Ile-Ile-Trp-MCA; assay type: biochemical; conditions: porcine aortic endothelial cell ECE prep; 80 μM Suc-Ile-Ile-Trp-MCA; 15-20 min preincubation; overnight at 37° C.; pH 7.0; AMC fluorescence
Sequence (F1SU04 entry or part of it): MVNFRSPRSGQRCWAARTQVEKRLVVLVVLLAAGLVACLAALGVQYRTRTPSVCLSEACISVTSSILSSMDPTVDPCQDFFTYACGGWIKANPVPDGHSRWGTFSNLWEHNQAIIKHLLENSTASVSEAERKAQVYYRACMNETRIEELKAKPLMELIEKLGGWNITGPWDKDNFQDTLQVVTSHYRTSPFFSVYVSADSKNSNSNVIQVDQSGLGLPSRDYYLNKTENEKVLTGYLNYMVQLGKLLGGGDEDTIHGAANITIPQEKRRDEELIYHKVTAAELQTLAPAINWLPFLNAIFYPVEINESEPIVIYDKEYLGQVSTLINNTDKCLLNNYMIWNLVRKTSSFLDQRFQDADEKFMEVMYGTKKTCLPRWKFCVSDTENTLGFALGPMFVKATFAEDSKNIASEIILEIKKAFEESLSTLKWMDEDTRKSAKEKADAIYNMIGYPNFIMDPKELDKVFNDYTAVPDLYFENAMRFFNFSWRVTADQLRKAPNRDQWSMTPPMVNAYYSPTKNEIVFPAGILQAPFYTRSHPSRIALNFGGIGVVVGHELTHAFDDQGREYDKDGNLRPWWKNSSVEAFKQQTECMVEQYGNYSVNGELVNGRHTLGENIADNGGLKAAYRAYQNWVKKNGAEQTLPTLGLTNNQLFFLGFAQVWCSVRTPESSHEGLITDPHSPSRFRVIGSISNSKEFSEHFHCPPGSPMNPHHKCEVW
Description: IC50 values were determined as follows:
Porcine Aortic "ECE" Prep
Porcine aortas (22-25) were obtained fresh from a local slaughterhouse and delivered in cold PBS on ice. The aortas were cut open, rinsed with cold PBS and the endothelial cell layer scraped into cold PBS using a scalpel. The endothelial cells were pelleted by centrifugation, rinsed once with cold PBS, and repelleted. The pellet was lysed by addition of 10 volumes of 10 mM Tris-HCl, pH 7.0, containing protease inhibitors and DTS, followed by brief sonication and homogenization. The lysate was centrifuged at 100,000 g for 1 hour and the supernatant applied to a MONOQ FPLC anion exchange column equilibrated in 10 mM Tris-HCl, pH 7.0 (buffer A) which was then developed with an increasing gradient of NaCl in buffer A. The active fractions were aliquoted and stored at -70° C.
The ECE assay was performed in 96-well microplates in a total volume of 200μ/well. The assay cocktail contains 100 mM Tris-HCl, pH 7.0, 20 mM CaCl2, 80 μM substrate (Suc-Ile-Ile-Trp-MCA), enzyme and test compounds. The test compounds were preincubated with the enzyme for 15-20 minutes before initiation of the assay by addition of the substrate. The assay was incubated overnight at 37° C. and the fluorescence intensity caused by the release of AMC was determined using a fluorescence microplate reader (EX360 nm/EM460 nm). IC50 values for compounds were determined by constructing concentration-effect curves for the inhibition of enzyme activity. Concentrations on the linear portion of the inhibition curve were used to determine the IC50 utilizing a Hill plot.

Point of comparison: `CC[C@H](C)[C@H](NC(=O)OCc1ccccc1)C(=O)N[C@H](C(=O)NC(Cc1c[nH]c2ccccc12)NC(=O)COC(C)=O)[C@@H](C)CC` (some centres unmarked) [Example 80], pIC50 5.00. Against it:
- CC[C@H](C)[C@H](NC(=O)[C@H](CC(=O)OC(C)(C)C)NC(=O)OCc1ccccc1)C(=O)N[C@H](C(=O)N[C@H](C=O)Cc1c[nH]c2ccccc12)[C@@H](C)CC [Example 64] (Cbz-D(OtBu)IIW-aldehyde) — 2.22 log units higher, 7.22
- CC[C@H](C)[C@H](NC(=O)CCCCCNC(=O)CCCCC1SCC2NC(=O)NC21)C(=O)N[C@H](C(=O)NC(Cc1c[nH]c2ccccc12)C(OC)OC)[C@@H](C)CC (stereo partly drawn) [Example 66, N-[[[5-(hexahydro-2-oxo-1H-thieno[3,4-d]imidazol-4-yl)valeramido]hexanoyl]-L-isoleucyl-L-isoleucine-L-N-[1-dimethoxymethyl]2-(1H-indol-3-yl)ethyl]amide] — 1.52 log units higher, 6.52
- CC[C@H](C)[C@H](NC(=O)CCCCCNC(=O)CCCCCNC(=O)OCc1ccccc1)C(=O)N[C@H](C(=O)N[C@@H](Cc1c[nH]c2ccccc12)C(OC)OC)[C@@H](C)CC [Example 68] — 0.30 log units higher, 5.30
- CC[C@H](C)[C@H](NC(=O)CCCCCNC(=O)CCCCCNC(=O)c1cc(=O)[nH]c(=O)[nH]1)C(=O)N[C@H](C(=O)NC(C=O)Cc1c[nH]c2ccccc12)[C@@H](C)CC (some centres unmarked) [Example 69] — 2.22 log units higher, 7.22
- CC[C@H](C)[C@H](NC(=O)CCCCCNC(=O)CCCCCNC(=O)CC1NC(=O)NC1=O)C(=O)N[C@H](C(=O)NC(C=O)Cc1c[nH]c2ccccc12)[C@@H](C)CC (some centres unmarked) [Example 70] — 2.10 log units higher, 7.10
- CC[C@H](C)[C@H](NC(=O)CCCCCNC(=O)OCc1ccccc1)C(=O)N[C@H](C(=O)N[C@H](C=O)Cc1c[nH]c2ccccc12)[C@@H](C)CC [Example 71] ({Cbz-Ahx}-Ile-Ile-Trp-aldehyde) — 2.40 log units higher, 7.40
- CCCCC(=O)N[C@H](C(=O)N[C@H](C(=O)NC(C=O)Cc1c[nH]c2ccccc12)[C@@H](C)CC)[C@@H](C)CC (stereo partly drawn) [Example 72] (Pentanoyl-Ile-Ile-[ξW]-aldehyde) — 1.82 log units higher, 6.82
- CC[C@H](C)[C@H](NC(=O)CCC(=O)OC)C(=O)N[C@H](C(=O)NC(Cc1c[nH]c2ccccc12)C(OC)OC)[C@@H](C)CC (some centres unmarked) [Example 73] — within 0.2 log units, 5.10
- CC[C@H](C)[C@H](NC(=O)CCC(=O)OC)C(=O)N[C@H](C(=O)NC(C=O)Cc1c[nH]c2ccccc12)[C@@H](C)CC (stereo partly drawn) [Example 74] (MeOSuc-Ile-Ile-[ξW]-aldehyde) — 2.10 log units higher, 7.10
- NC(=O)NN=CC(Cc1c[nH]c2ccccc12)NC(=O)[C@H](Cc1c[nH]c2ccccc12)NC(=O)[C@H](Cc1c[nH]c2ccccc12)NC(=O)OCc1ccccc1 (some centres unmarked) [Example 75] — 2.40 log units higher, 7.40
- CC[C@@H](C)[C@@H](NC(=O)OCc1ccccc1)C(=O)N[C@H](C(=O)N[C@H](C=O)Cc1c[nH]c2ccccc12)[C@@H](C)CC [Example 77, N-Benzyloxycarbonyl-R-isoleucyl-S-isoleucine-1-S--formyl-2-(1H--indol-3-yl)-ethylamide] (Cbz-[dI]-Ile-Trp-aldehyde) — 1.00 log units higher, 6.00
- COC(OC)C(Cc1c[nH]c2ccccc12)NC(=O)[C@H](Cc1c[nH]c2ccccc12)NC(=O)[C@H](Cc1c[nH]c2ccccc12)NC(=O)CCCCCNC(=O)CCCCC1SCC2NC(=O)NC21 (stereo partly drawn) [Example 78, N-[[[5-(hexahydro-2-oxo-1H-thieno[3,4-d]imidazol-4-yl)valeramido]hexanoyl]-L-trytophanyl-L-tryptophan-L-N-[1-dimethoxymethyl]2-(1H-indol-3-yl)ethyl]amide] — the same, 5.00
- CC[C@H](C)[C@H](NC(=O)OCc1cccnc1)C(=O)N[C@H](C(=O)N[C@H](C=O)Cc1c[nH]c2ccccc12)[C@@H](C)CC [Example 81] — 1.70 log units higher, 6.70
- CCOC(=O)C1OC1C(=O)NCC(Cc1c[nH]c2ccccc12)NC(=O)[C@@H](NC(=O)[C@@H](NC(=O)OCc1ccccc1)[C@@H](C)CC)[C@@H](C)CC (some centres unmarked) [Example 82] — the same, 5.00
- CC[C@H](C)[C@H](NC(=O)OCc1ccccc1)C(=O)N[C@H](C(=O)NC(CNC(=O)CCN1C(=O)C=CC1=O)Cc1c[nH]c2ccccc12)[C@@H](C)CC (stereo partly drawn) [Example 83, N-(benzyloxy)carbonyl-L-isoleucyl-L-isoleucine-L-N-[1-[(3-maleimidopropionamido]methyl]-2-(1H-indol-3-yl)ethyl]amide] — 1.00 log units higher, 6.00
- CC[C@H](C)[C@H](NC(=O)OCc1ccccc1)C(=O)N[C@H](C(=O)N[C@H](CNC(=O)CN1C(=O)C=CC1=O)Cc1c[nH]c2ccccc12)[C@@H](C)CC [Example 84] — 1.00 log units higher, 6.00
- CC[C@H](C)[C@H](NC(=O)OCc1ccccc1)C(=O)N[C@H](C(=O)NC(CNC(=O)CCl)Cc1c[nH]c2ccccc12)[C@@H](C)CC (stereo partly drawn) [Example 85, N-(benzyloxy)carbonyl-L-isoleucyl-L-isoleucine-L-N-[1-[(2-chloroacetamido]methy]-2-(1H-indol-3-yl)ethyl]amide] — the same, 5.00
- CC[C@H](C)[C@H](NC(=O)OCc1ccccc1)C(=O)N[C@H](C(=O)NC(CNC(=O)CO)Cc1c[nH]c2ccccc12)[C@@H](C)CC (stereo partly drawn) [Example 86, N-(benzyloxy)carbonyl-L-isoleucyl-L-isoleucine-L-N-[1-[(2-hydroxyacetamido]methyl]-2-(1H-indol-3-yl)ethyl]amide] — the same, 5.00
- NC(=O)NN=CC(Cc1c[nH]c2ccccc12)NC(=O)[C@H](Cc1c[nH]c2ccccc12)NC(=O)[C@H](Cc1c[nH]c2ccccc12)NC(=O)CCCCCNC(=O)CCCCC1SCC2NC(=O)NC21 (stereo partly drawn) [Example 87, N-[[[5-(hexahydro-2-oxo-1H-thieno[3,4-d]imidazol-4-yl)valeramido]hexanoyl]-L-tryptophanyl-L-tryptophan-L-N-[1-semicarbazonomethyl]2-(1H-indol-3-yl)ethyl]amide] — 2.22 log units higher, 7.22
- CC[C@H](C)[C@H](NC(=O)OCc1ccccc1)C(=O)N[C@H](C(=O)NC(Cc1ccccc1)C(=O)C(=O)O)[C@@H](C)CC (some centres unmarked) [Example 88] — 1.22 log units higher, 6.22
- CC[C@H](C)[C@H](NC(=O)CCCCc1ccccc1)C(=O)N[C@H](C(=O)NC(C=O)Cc1c[nH]c2ccccc12)[C@@H](C)CC (some centres unmarked) [Example 89] — 2.30 log units higher, 7.30
- CC[C@H](C)[C@H](NC(=O)CCOc1ccccc1)C(=O)N[C@H](C(=O)N[C@H](C=O)Cc1c[nH]c2ccccc12)[C@@H](C)CC [Example 90] — 2.22 log units higher, 7.22
- O=C[C@H](Cc1c[nH]c2ccccc12)NC(=O)[C@H](Cc1c[nH]c2ccccc12)NC(=O)[C@H](Cc1c[nH]c2ccccc12)NC(=O)CCCCC1SCC2NC(=O)NC21 (stereo partly drawn) [Example 91, N-[[5-(hexahydro-2-oxo-1H-thieno[3,4-d]imidazol-4-yl)pentanoyl]-L-tryptophanyl-L-tryptophan-L-N-[1-formyl]2-(1H-indol-3-yl)ethyl]amide] — 3.30 log units higher, 8.30
- COC(OC)[C@H](Cc1c[nH]c2ccccc12)NC(=O)[C@H](Cc1cccc2ccccc12)NC(=O)[C@H](Cc1ccc(Br)cc1)NC(=O)CCCCC1SCC2NC(=O)NC21 (stereo partly drawn) [Example 92, N-[[5-(hexahydro-2-oxo-1H-thieno[3,4-d]imidazol-4-yl)pentanoyl]-L-p-bromophenylalanyl-L-1-naphthylalanyl-L-N-[1-dimethoxymethyl]2-(1H-indol-3-yl)ethyl]amide] — 1.00 log units higher, 6.00
- O=CC(Cc1c[nH]c2ccccc12)NC(=O)[C@H](Cc1cccc2ccccc12)NC(=O)[C@H](Cc1ccc(Br)cc1)NC(=O)CCCCC1SCC2NC(=O)NC21 (stereo partly drawn) [Example 93, N-[[5-(hexahydro-2-oxo-1H-thieno[3,4-d]imidazol-4-yl)pentanoyl]-L-p-bromophenylalanyl-L-1-naphthylalanyl-L-N-[1-formyl]2-(1H-indol-3-yl)ethyl]amide] — 3.70 log units higher, 8.70
